From patent US20250321223A1, “ENGINEERING CHEMICALLY INDUCIBLE SPLIT PROTEIN ACTUATORS (CISPA)” (KEMIJSKI INSTITUT, priority 2021, published 2025)

Tests used:
[1] = target: split ligand binding domain of estrogen receptor beta (ERβ) (Homo sapiens, UniProt Q92731); details: HEK293T cells, increasing ligand concentration, compared to cells not stimulated; FIG. 2C
Description: (§1) The fusion constructs were simultaneously expressed in the HEK293T cell line. […] Following this dimerization, the split reporter fragments (nLuc and cLuc) are brought into the proximity, leading to their reconstitution and measurable output signal (emitted light). The plasmids encoding for the CISPA sensors based on split LBDs were transiently transfected into the HEK293T cell line. A constitutively expressed Renilla luciferase (phRL-TK http://www.promega.com/vectors/prltk.txf) was used as control of transfection efficiency.
(§2) Methods and techniques for cell line cultivation are well-known to experts in the field and are explained here only indicatively, with the intention of clarifying the example. Cell cultures of HEK293T cells were grown at 37° C. and 5% CO2. For cultivation, DMEM medium with 10% FBS, containing all the necessary nutrients and growth factors was used. When the cell population reached a sufficient density, the cells were transferred to a new flask and/or diluted. For use in experiments, the number of cells was determined by the Countess automated cell counter (Invitrogen). A 96-well microtiter plate, suitable for growing cell cultures, was inoculated with 2*10^4 cells per well 24 hours prior to transfection.

[2] = system: split ligand binding domain of glucocorticoid receptor (GR2); test: CISPA sensor, split LBD of GR2 fused to split firefly luciferase, in HEK293T cells; format: cell-based, human; details: increasing ligand concentration, compared to cells not stimulated, FIG. 2B
Description: as §1, §2

[3] = system: split dihydrofolate reductase (DHFR); test: CISPA sensor, split DHFR fused to split firefly luciferase, in HEK293T cells; format: cell-based, human; details: increasing ligand concentration, compared to cells not stimulated, FIG. 3B
Method: as §2
A constitutively expressed Renilla luciferase (phRL-TK http://www.promega.com/vectors/prltk.txf) was used as control of transfection efficiency.

Sequence of split ligand binding domain of estrogen receptor beta (ERβ) (Q92731 with tags, fused parts or gaps): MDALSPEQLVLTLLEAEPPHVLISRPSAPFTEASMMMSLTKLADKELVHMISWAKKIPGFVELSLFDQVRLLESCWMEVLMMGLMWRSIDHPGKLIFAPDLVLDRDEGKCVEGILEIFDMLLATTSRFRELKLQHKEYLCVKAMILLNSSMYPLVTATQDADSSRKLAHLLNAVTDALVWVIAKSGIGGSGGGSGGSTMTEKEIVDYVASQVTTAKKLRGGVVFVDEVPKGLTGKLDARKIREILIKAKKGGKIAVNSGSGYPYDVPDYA
Sequence of split ligand binding domain of estrogen receptor beta (ERβ) (Q92731 with tags, fused parts or gaps): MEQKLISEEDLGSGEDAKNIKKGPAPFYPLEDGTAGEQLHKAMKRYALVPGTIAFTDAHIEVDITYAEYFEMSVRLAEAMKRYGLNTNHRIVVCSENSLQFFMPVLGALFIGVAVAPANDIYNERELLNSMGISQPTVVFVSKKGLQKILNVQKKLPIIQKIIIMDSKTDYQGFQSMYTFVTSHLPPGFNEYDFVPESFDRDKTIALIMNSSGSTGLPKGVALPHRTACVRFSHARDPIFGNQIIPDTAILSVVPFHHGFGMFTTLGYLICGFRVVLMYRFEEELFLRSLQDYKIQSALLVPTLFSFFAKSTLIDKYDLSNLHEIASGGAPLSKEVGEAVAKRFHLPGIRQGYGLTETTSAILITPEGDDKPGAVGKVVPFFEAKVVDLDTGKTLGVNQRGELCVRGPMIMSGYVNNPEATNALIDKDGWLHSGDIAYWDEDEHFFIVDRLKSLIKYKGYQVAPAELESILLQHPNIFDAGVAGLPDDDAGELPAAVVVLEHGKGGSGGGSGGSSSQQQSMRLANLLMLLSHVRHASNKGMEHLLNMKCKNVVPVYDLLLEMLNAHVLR

Compound | firefly luciferase activity (dimerization of split DHFR CISPA sensor) [3] | further results
4-hydroxytamoxifen |  | firefly luciferase activity (dimerization of split ERβ CISPA sensor) [1]: concentration-dependent manner
C[C@]12CCC(=O)C=C1CC[C@@H]1[C@@H]2[C@@H](O)C[C@@]2(C)[C@H]1CC[C@]2(O)C(=O)CO [cortisol] |  | firefly luciferase activity (dimerization of split GR2 CISPA sensor) [2]: an increase in the firefly luciferase activity is observed
CN(Cc1cnc2nc(N)nc(N)c2n1)c1ccc(C(=O)N[C@@H](CCC(=O)O)C(=O)O)cc1 [methotrexate] | an increase in firefly luciferase activity is observed | 
C#CCC(Cc1cnc2nc(N)nc(N)c2n1)c1ccc(C(=O)N[C@@H](CCC(=O)O)C(=O)O)cc1 (stereo partly shown) [pralatrexate] | an increase in firefly luciferase activity is observed | 
